Test results reported in the METLIN SMRT retention time set (Domingo-Almenara et al. 2019).

Assay: gradient 5% acetonitrile 3 min, to 50% in 2 min, to 85% in 15 min, held 3 min, 100 µL/min
Conditions: column: Zorbax Extend-C18 2.1 x 50 mm; eluents: water / acetonitrile, 0.1% formic acid
Summary of the method: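 Retention times come from adduct peaks that were picked computationally and then checked by hand. The standards, pure and pooled in mixtures of ~100 molecules, were run on a Zorbax Extend-C18 column (2.1 × 50 mm, 1.8 μm) at 100 μL/min with water and acetonitrile, each with 0.1% formic acid. Detection was by quadrupole time-of-flight mass spectrometry in positive and negative ionization mode, with a dead volume of 40 μL and a dwell volume of 900 μL.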

RP-LC retention time [s]	Compound
570	Cc1noc(C)c1S(=O)(=O)N1CCc2nc[nH]c2C1
615	CCC1CN2C=NC(N3CCN(C(=O)Cc4ccccc4)CC3)=CC2=N1 (stereo not given)
924	O=C(Nc1ccc(C(F)(F)F)cc1)C1CCN(S(=O)(=O)c2ccc3[nH]c(=O)sc3c2)CC1
914	CC(C)n1c(N2CCCN(C(=O)COc3ccc(Cl)cc3)CC2)cc(=O)n(C(C)C)c1=O
598	COc1ccc2c(c1)c(CN1CCOCCNC(=O)CC1)cn2C
762	CCc1cccc(NC(=O)C2CCN(C(=O)C3Sc4ccccc4NC3=O)CC2)c1 (stereo not given)
708	C=CCN1CC(=O)N2Cc3[nH]c4ccccc4c3C[C@H]2C1=O
600	CC1(C)C(=O)N(CC(=O)N2CCN(c3ccccn3)CC2)c2ccccc21
668	Cc1nc(-c2ccc(C(=O)N3CC(=O)Nc4ccccc43)cc2)no1
721	CC(C)(C)NC(=O)Cn1ccn2nc(-c3ccccc3)c(CO)c2c1=O
708	COCCC(=O)NC1CCN(C2=NS(=O)(=O)C(c3ccc(C)cc3)=C2C)CC1
703	CCC(C(=O)Nc1ccc2ncnc(N3CCCC3)c2c1)c1ccccc1 (stereo not given)
701	O=C(Nc1ccc(N2CCCN(C(=O)C3CC3)CC2)cc1)c1cncc(Br)c1
947	Cc1ccc(-n2nc(N3CCCN(S(=O)(=O)c4ccccc4)CC3)ccc2=O)cc1C
834	CN(CC1CCOCC1)S(=O)(=O)Cc1ccccc1Cl
1050	Cc1noc(-c2cccn2Cc2ccccc2F)n1
641	O=C1CCCCC(C(=O)N2CCCCC2)N1 (stereo not given)
746	O=C1CC(c2ccco2)Cc2[nH]c(=O)c(C(=O)Nc3ccccc3C(F)(F)F)cc21 (stereo not given)
736	O=C(NCCc1c[nH]c2ccccc12)C1CC(=O)N(Cc2ccccc2)C1 (stereo not given)
596	CCOC(=O)c1ccc(NC(=O)CC2COc3ccccc3NC2=O)cc1 (stereo not given)
840	CCOC(=O)C1C(=O)C=C(c2cccc(NS(C)(=O)=O)c2)CC1c1ccccc1F (stereo not given)
951	CCCNC(=O)c1cc2sc(CC)cc2n1C
987	O=C(NCc1csc(-c2ccccc2)n1)C1CCN(S(=O)(=O)c2ccc(F)c(Cl)c2)CC1

RP-LC retention time [s]	Compound
802	COc1ccc(C2C(C(=O)NCc3ccccc3OC)c3cc(OC)c(OC)cc3C(=O)N2C)cc1 (stereo not given)
976	CCOc1ccc(Cc2nc(-c3ccc4c(c3)oc(=O)n4C)no2)cc1OCC
884	Cc1ccc(NC(=O)Cn2nc(C(=O)N3CCCC3)c3ccccc32)cc1F
706	Cc1oc(-c2[nH]ncc2C(=O)N2CCCC2)cc1S(=O)(=O)NCc1cccc(F)c1
1290	COc1ccc(-c2ncc3c(=O)n(Cc4ccc(Br)cc4F)c(=O)n(C)c3n2)cc1
810	Cc1cc(NC(=O)CSc2nc3ccccc3s2)no1
935	O=C(CN1C(=O)CCc2cc(S(=O)(=O)N3CCCCC3)ccc21)NC1CCCc2ccccc21 (stereo not given)
647	Cc1cc(C(=O)N2CCCCC2c2nncn2-c2ccccc2)nn1C (stereo not given)
852	CCN(Cc1ccccc1)C(=O)C1CCN(S(=O)(=O)c2ccc3c(c2)NC(=O)CO3)CC1
640	CCN1CCN(c2c(S(=O)(=O)c3ccc(OC)cc3)cnc3ccc(OC)cc23)CC1
662	COCC(=O)N1CCCc2ccc(NC(=O)NCc3cccs3)cc21
580	Cc1oc(-c2[nH]ncc2C(=O)N2CCCC2)cc1S(=O)(=O)N1CCN(CC(C)C)CC1
629	COc1cc2ncc(S(=O)(=O)c3ccc(C)c(C)c3)c(N3CCN(C)CC3)c2cc1OC
930	CCCNC(=O)c1cc(-c2ccc(F)cc2)cn1C
755	CN(CC1CCOC1)S(=O)(=O)Cc1ccccc1F (stereo not given)
630	COc1ccc(-n2ccnc2SCC(=O)NCc2ccc3c(c2)OCO3)c(OC)c1
937	COc1ccc(-c2c(C(=O)Nc3cccc(C(C)=O)c3)nc3ccccn23)cc1
835	COC(=O)c1cn(CC(=O)NC(C)c2ccc3c(c2)OCCCO3)c2ccccc12 (stereo not given)
1030	Cc1cc([N+](=O)[O-])ccc1Nc1cccc(Cl)c1C
570	OC[C@@H]1CN(Cc2cccc(OC(F)(F)F)c2)C[C@H]1c1ccncc1
761	O=C(Cn1c(-c2cccs2)cc2cc(F)ccc21)N1CCN(c2ccccn2)CC1
598	COc1ccc(N2CC(C(=O)N3CC4CC3C(=O)O4)CC2=O)cc1 (stereo not given)
859	Cc1cc(C)cc(Oc2nccn3c(=O)n(CC(=O)NC(C)(C)C)nc23)c1

RP-LC retention time [s]	Compound
597	O=S(=O)(c1cc(-c2nnc(C3CC3)o2)co1)N1CCC(N2CCCCC2)CC1
867	Cc1nn2c(CNS(=O)(=O)c3ccc(F)cc3F)c(-c3ccccc3)nc2s1
552	Cc1[nH]c(=O)[nH]c(=O)c1CC(=O)NCCn1nc(-c2ccco2)ccc1=O
798	Cc1cc(C)cc(NC(=O)CN2CCN(Cc3ccc(F)cc3)C(=O)C2=O)c1
724	O=C(Cn1ccc2sccc2c1=O)N1CCN(c2ccccc2)CC1
724	COc1ccccc1CN1C[C@@H]2C(=O)N(Cc3ccc4c(c3)OCO4)C(=O)[C@@H]2C1
980	O=c1c2c(ccn1Cc1nc(-c3ccsc3)no1)ccn2CC1CC1
731	CC(=O)Nc1ccc(-c2noc(C3CCCN(C(=O)c4ccoc4)C3)n2)cc1 (stereo not given)
1270	COc1ccc(-c2nc(-c3ccc4c(c3)oc(=O)n4C(C)C)no2)c(C)c1
1220	CC(C)(C)c1csc(-c2csc(S(=O)(=O)Nc3ccc(F)cc3)c2)n1
742	COc1ccc(-c2nc3nc(C)cc(C)n3c2Nc2ccccc2C)cc1
902	O=C(CS(=O)Cc1cnn(-c2ccccc2)c1-n1cccc1)N1CCCCCC1 (stereo not given)
1010	O=c1n(Cc2cccc(C(F)(F)F)c2)nc2c(S(=O)(=O)N3CCc4ccccc4C3)cccn12
750	CC1(C)COCN1S(=O)(=O)c1ccc(C(=O)Nc2nnc(-c3cccs3)o2)cc1
922	COc1cccc(CC(=O)N2CCC3(CC2)N=C(c2ccc(Cl)cc2)NO3)c1
1010	O=C(Nc1ccc(SCc2nnc(-c3ccccc3)o2)cc1)c1ccc(Br)o1
904	Cc1noc(-c2cc(=O)n(CC(=O)Nc3cc(F)cc(F)c3)c3ccccc23)n1
803	O=C(NC1CC1)c1ccc(OCC2CCN(C(=O)Cc3ccccc3F)CC2)cc1
960	O=C(CCC1CCCN(C(=O)Nc2ccc(Cl)cc2)C1)NCc1cccc(Cl)c1 (stereo not given)
767	Cc1nc(C(=O)NC2CCCCC2)c(C)o1
700	Cc1ccn2cc(-c3ccc(NC(=O)c4cc(Br)ccc4Cl)cc3)nc2n1
1330	CCCc1ccc(S(=O)(=O)N2CCC(F)(c3nc(CC(C)C)no3)CC2)cc1
691	COC(=O)C1=CC(=O)N2CCN=C2S1

RP-LC retention time [s]	Compound
652	CN(C)C[C@@H]1CN(c2ccncn2)C[C@H]1NC(=O)c1ccc2ncccc2c1
593	O=C(Nc1ccc(Br)cc1F)N1CCc2nc[nH]c2C1
1220	CC(C)n1c(=O)oc2cc(-c3noc(-c4ccccc4Br)n3)ccc21
1220	Cc1ccc(S(=O)(=O)N2CCc3nc(-c4ccc(F)cc4)ncc3C2)c(C)c1
775	COc1cccc(N2C(=O)c3ccccc3C2C(=O)NC2CCCC2)c1 (stereo not given)
872	CCS(=O)(=O)N1CCCN(C2=NS(=O)(=O)C(c3ccc(C)c(C)c3)=C2C)CC1
628	O=C(C1CCN(c2nnc(-c3ccccc3)o2)CC1)N1CCN(C2CCCCC2)CC1
883	O=C(Nc1ccc(F)cc1F)c1noc2c1CCCC2
646	CCCCNC(=O)CSc1nnc(C)c2c(C)n(-c3ccccc3)nc12
769	Cc1noc(C2CN(C(=O)Nc3ccc(Cl)cc3F)CC23CCOCC3)n1 (stereo not given)
774	COCCn1cc(CCNC(=O)Nc2cccc(F)c2C)c2cccnc21
846	COc1ccc2[nH]cc(CCN3CC(C(=O)Nc4cc(C)cc(C)c4)CC3=O)c2c1 (stereo not given)
1250	Cc1ccc(NC(=O)c2cc(C(C)C)n3nccc3n2)cc1C
666	CCC[C@H](Nc1nc(-c2ccc(NC(=O)NCC)c(OC)c2)ncc1C)c1cccnc1
692	CC(NC(=O)C(=O)N1CCOCC1)C(c1cccs1)N1CCN(c2ccccc2F)CC1 (stereo not given)
570	CC(C)N1CCN(C(=O)CC2Sc3ncccc3N(C)C2=O)CC1 (stereo not given)
748	CCCN1C(=O)Cc2cc(C(=O)N3CCN(c4ccc(OC)cc4)CC3)ccc21
672	Cc1[nH]c(=O)[nH]c(=O)c1CCC(=O)Nc1cccc(-c2nc3ccccc3s2)c1
1100	Cc1cccc(NC(=O)N2c3ccccc3CC2c2nc(C3CC3)no2)c1C (stereo not given)
753	CCCCN1C(=O)CC2CCOC21C (stereo not given)
718	O=C(C1CC(=O)N(c2n[nH]c3cccc(F)c23)C1)N1CCN(c2ccccc2)CC1 (stereo not given)
